Measurements as given in the NIST ThermoML archive (doi:10.1021/je050434f).

Columns and labels:
[1] = for speed of sound / mass density / viscosity: 101.33 kPa, Liquid; for speed of sound: Sing-around technique in a fixed-path interferometer; for mass density: Vibrating tube method; for surface tension liquid-gas: Pendant drop shape; for viscosity: Capillary tube (Ostwald / Ubbelohde) method
[2] = refractive index (Na D-line) (dimensionless); conditions: 101.33 kPa, Liquid, Abbe refractometer

COS(=O)(=O)[O-].Cn1cc[n+](C)c1 [1,3-dimethylimidazolium methylsulfate]
Conditions | mass density, [1] [kg/m3] | refractive index, [2] | speed of sound, [1] [m/s] | surface tension liquid-gas, [1] [mN/m] | viscosity, [1] [mPa·s]
283.15 K | 1338.24 | 1.48659 | 1851 | – | –
288.15 K | 1334.54 | 1.48525 | 1838 | 60.9 | –
293.15 K | 1330.88 | 1.48392 | 1826 | 60.3 | 92.76
298.15 K | 1327.25 | 1.4827 | 1813 | 59.8 | 72.91
303.15 K | 1323.65 | 1.48129 | 1801 | 59.5 | 58.35
308.15 K | 1320.09 | 1.47999 | 1789 | 59.1 | –
313.15 K | 1316.57 | 1.47867 | 1777 | 58.9 | 39.21
318.15 K | 1313.05 | 1.47726 | 1765 | – | –
323.15 K | 1309.55 | 1.47593 | 1753 | – | 27.78
328.15 K | 1306.06 | 1.47421 | 1742 | – | –
333.15 K | 1302.59 | 1.47294 | 1730 | – | 21.01
338.15 K | 1299.14 | 1.47154 | 1719 | – | –
343.15 K | 1295.7 | 1.47027 | 1708 | – | 16.01
